{"source": "paper PMC11718471", "about": "(World Journal of Diabetes, 2025)", "key": {"[1]": {"test": "Plasma IAsp exposure during 8-hour euglycemic clamp", "assay_type": "in vivo, human", "details": "healthy subjects, 0.2 IU/kg s.c., group A (basal BG < 4.00 mmol/L, target BG 2.5% below baseline), before PSM, n = 15, LC-MS/MS, trapezoidal, mean ± SD"}, "blood glucose": {"test_system": "blood glucose", "test": "Euglycemic clamp, glucose infusion rate", "assay_type": "in vivo, human", "details": "healthy subjects, 0.2 IU/kg s.c., 8-hour euglycemic clamp, 20% dextrose, group A (target BG 2.5% below baseline), n = 15, mean ± SD"}}, "data": [{"substance": "insulin aspart [IAsp]", "values": [{"measurement": "AUCIAsp, 0-8 h", "setting": "[1]", "value": "566 ± 51", "unit": "ng·h/mL"}, {"measurement": "AUCGIR, 0-8 h", "setting": "blood glucose; after PSM", "value": "1433 ± 400", "unit": "mg/kg"}, {"measurement": "AUCGIR, 0-8 h", "setting": "blood glucose; before PSM", "value": "1433 ± 400", "unit": "mg/kg"}]}]}
